The values that follow come from US7628991B2, “Use of Lactobacillus farciminis for the prevention or treatment of digestive pathologies” (Institute National de la Recherche Agronomique (INRA), priority 2002, dated 2009).

The test system of test [1] is colonic inflammation induced by TNBS/ethanol. Description: Myeloperoxidase (MPO) activity of the colon wall, TNBS/ethanol-induced colitis (Example 1). The format is in vivo, WISTAR rats. The settings on record: rats without TNBS/ethanol (0.9% NaCl instillation); intracolonic infusion for 4 days. The source says:
(§1) This colitis is characterized by an increase in myeloperoxidase (MPO) activity, a marker of the degree of infiltration of polynuclear neutrophils in the colonic mucosa, and by the increase in the macroscopic lesion score (MLS) taking into account the seriousness and the extent of the macroscopic lesions appearing, the presence and seriousness of adherences and the presence or nonpresence of diarrhea in the colon.
The effects of a treatment with a nitric oxide donor, sodium nitroprusside (SNP), or with L. farciminis on a TNBS-induced colitis in rats were compared. Moreover, the effective role of exogenous nitric oxide in these effects was evaluated using an NO scavenger, hemoglobin (Hb). […]
The myeloperoxidase (MPO) activity is determined on colon samples isolated according to the protocol described by BRADLEY et al. (J. Invest. Dermatol., 78, 206-209, 1982). […]
The MPO activity is determined by spectrophotometry. […] The changes in absorbance. (450 nm, 25° C.) were determined by kinetic spectrophotometry of 2 minutes, according to the balanced equation for the enzymatic reaction catalyzed by MPO: H2O2+Cl^−=H2O+HOCl (orange color), and expressed as MPO units.
One MPO activity unit is defined as the quantity of MPO degrading 1 μmol of hydrogen peroxide per minute per milliliter at 25° C. […]

For test [2] the test system is unchanged. Nature of the test: Macroscopic lesion score (MLS) of the colon, TNBS/ethanol-induced colitis (Example 1). The following applies: rats instilled with TNBS/ethanol, 4 days after instillation; daily intracolonic infusion; SNP 1 mg/kg/day, Hb 200 mg/kg/day. It counts as in vivo, WISTAR rats.
Text: as §1
For the study of the effects of SNP, 7 groups of WISTAR rats of 200-250 grams were provided, under anesthetic, with an intracolonic catheter (+2 cm from the caeco-colonic junction) exteriorized at the level of the dorsoscapular region. At D+5, the rats receive an intracolonic instillation of 80 mg/kg/day of TNBS/ethanol (groups 4-7) or of a 0.9% NaCl solution (groups 1-3). 4 hours after the instillation, the rats are infused at a flow rate of 250 μl/hour with 1 mg/kg/day of SNP (groups 2 and 5), or 200 mg/kg/day of Hb (groups 3 and 7), or an SNP+Hb mixture (group 6), or a 0.9% NaCl solution (groups 1 and 4), for 4 days. […]
The macroscopic lesion score (MLS) is determined on isolated colonic samples as described by WALLACE et al., (Gastroenterology, 102, 18-27, 1992) according to the assessment grid below: […]

Turning to hemoglobin [Hb], in test [1], the “MPO activity of the colon wall” value is on record as 426±117 MPO U/g of proteins. Further, in test [2], the “Macroscopic lesion score (MLS)” value is 5.8±1.3.
